Results taken from PubChem BioAssay (NCI).
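Growth conditions: 96-well plates. Treatment: test compound, 48 hours, 5 concentrations. Analysis: linear interpolation between bracketing concentrations; unreached endpoints set to highest concentration. TGI: concentration producing complete growth inhibition.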

Columns and labels:
Assay in all cases: inhibition of tumour cell growth, NCI panel, 48 h
786-0 renal = tested on: 786-0 renal
BT-549 breast = tested on: BT-549 breast
CCRF-CEM leukemia = tested on: CCRF-CEM leukemia
M14 melanoma = tested on: M14 melanoma
MDA-MB-231 breast = tested on: MDA-MB-231 breast
OVCAR-4 ovarian = tested on: OVCAR-4 ovarian
RXF 393 renal = tested on: RXF 393 renal
SF-295 CNS = tested on: SF-295 CNS
SW-620 colon = tested on: SW-620 colon
UACC-62 melanoma = tested on: UACC-62 melanoma

Compound	TGI (786-0 renal) [µM]	TGI (BT-549 breast) [µM]	TGI (CCRF-CEM leukemia) [µM]	TGI (M14 melanoma) [µM]	TGI (MDA-MB-231 breast) [µM]	TGI (OVCAR-4 ovarian) [µM]	TGI (RXF 393 renal) [µM]	TGI (SF-295 CNS) [µM]	TGI (SW-620 colon) [µM]	TGI (UACC-62 melanoma) [µM]
CC(C)(C)OC(=O)NC(Cc1cnc[nH]1)C(=O)N1CCCC1C(N)=O (stereo not given)	> 100	> 100	> 100	> 100	> 100	> 100	92.3	> 100	> 100	> 100
O=C1CC(=O)c2c(Cl)sc(Cl)c21	> 100	> 100	> 100	> 100	> 100	76.3	86.2	> 100	> 100	> 100
Cc1cc2c(cc1C)[n+](=O)c(C(=O)N1CCN(c3ccc([N+](=O)[O-])cc3)CC1)c(C)n2[O-]	34.8	49.9	> 100	> 100	55.5	> 100	41.3	31.6	> 100	> 100
CN(C)CCCNc1nnc(NCCCN(C)C)c2c(=O)c3sccc3[nH]c12	> 49.1	> 79	> 50.2	23.9	> 30.7	23.2	42.1	> 54	> 72.2	23.7
COc1cc2c(cc1OC)C1(c3ccccc3)CN(C2)Cc2cc(OC)c(OC)cc21	> 100	80.1	61.4	59.6	53.8	77.6	60.3	> 100	> 100	> 100
COc1ccc(C(C2C(=O)N(C)C(=O)N(C)C2=O)C(F)(F)C(=O)N(C)C)cc1 (stereo not given)	> 100	> 100	> 100	> 100	> 100	> 100	> 100	> 100	> 100	> 100
Cc1ccc2c(=O)c(-c3nnc(N)s3)c[nH]c2n1	> 100	> 100	> 100	> 100	> 100	> 100	> 100	> 100	> 100	> 100
Cc1ccc2c(c1)[nH]c(=S)n2C=C1C(=O)CC(C)(C)CC1=O	> 100	> 100	> 100	> 100	> 100	> 100	> 100	> 100	> 100	> 100
Cc1ccc(S(=O)(=O)Oc2cc(S(=O)(=O)O)cc3cc(S(=O)(=O)O)cc(N)c23)cc1	> 100	> 100	> 100	> 100	> 100	> 100	> 100	> 100	> 100	> 100
CC1C/C(=N\N(C)C)C(C#N)(C#N)C1(C#N)C#N (stereo not given)	14.6	22.1	> 100	31.7	1.32	25.6	23.9	43.2	> 100	39.5
N#CC(C#N)=C(N)/C(C#N)=C/c1cc(O)c(O)c(Br)c1	> 100	> 100	> 100	> 100	> 100	> 100	> 100	> 100	> 100	> 100
CCOC(=O)c1cc(C2CCN(Cc3ccccc3)C2=O)c(C(=O)C(=[N+]=[N-])C(C)=O)[nH]1 (stereo not given)	> 100	> 100	> 100	> 100	> 100	> 100	> 100	> 100	> 100	> 100
COc1ccc2c(c1)nc1n2C(c2c(F)cccc2Cl)SC1 (stereo not given)	> 41.1	> 31.3	> 100	> 24.7	27.9	> 100	> 22	> 24.8	> 60.2	> 100
CC(C)N=C(NC#N)NS(=O)(=O)c1cnccc1Nc1ccc(Cl)cc1	> 100	> 100	> 100	> 100	> 100	> 100	> 100	> 100	> 100	> 100
CCn1c(=O)ccc2ccc(N(CCO)CCO)nc21	> 100	> 100	> 100	> 100	> 100	> 100	> 100	> 100	> 100	> 100
COC(=NCCC1=CCCCC1)OC	> 100	> 100	> 100	47.3	> 100	> 100	> 100	> 100	> 100	> 100
CC(=O)NCCc1c[nH]c2ccc(Cl)cc12	> 100	> 100	> 100	> 100	> 100	> 100	> 100	> 100	> 100	> 100
